The text below walks through data of patent US20240124409A1, “GUAIANOLIDE SESQUITERPENE LACTONE DERIVATIVES AND PHARMACEUTICAL USE THEREOF” (NANJING UNIVERSITY OF CHINESE MEDICINE, priority 2021, published 2024).

Data set [1] is described as follows: Conversion of Compound 23 to Compound 1 in HEPES7.4 solution. It counts as physicochemical. The note with it: HEPES buffer solution, 37° C. As to the method: Formulation of HEPES 7.4 solution: 1.6 g of NaCl, 0.074 g of KCl, 0.027 g of Na2HPO4, 0.2 g of glucose and 1 g of a 4-hydroxyethyl piperazine ethanesulfonic acid (HEPES) solution were placed in 90 mL of distilled water, the pH of which was adjusted to 7.4 with 0.5 M NaOH, and then the volume was adjusted to 100 mL with distilled water.
250 μL of the mouse serum or the HEPES7.4 solution was added into the sample, incubated at 37° C., and sampled at different time points, respectively. 20 μL of samples were taken into EP tubes, into which was added 60 μL of methanol, vortexed to mix well, and centrifuged at 12000 rpm at 4° C. for 10 min. The supernatants were taken at 1 h, 2 h, 4 h, 8 h and 12 h, respectively. The samples were analyzed by HPLC with an injection volume of 10 μL, and the corresponding peak areas were recorded. The chromatographic conditions were as follows: the chromatographic column was Hanbang C18 (4.6×250 mm, 5 um); the mobile phase was acetonitrile: […] of ammonium formate solution =60: 40; the flow rate was 1.0 mL/min; the detection wavelength was 210 nm; and the column temperature was 30° C.

The nature of data set [2]: Safety investigation of Compound 23, 30 days in mice. The data set is classed as in vivo, C57BL/6 mice. To be noted: for body weight: in % (unit assumed).
A further data set has as its system NLRP3 inflammasome. To be noted: read-out: inhibitory activity against the NLRP3 inflammasome activation, EC50; cited from earlier work.

On to `CN(C)C[C@@H]1C(=O)O[C@H]2[C@H]1CC[C@@]1(C)C[C@]13CC[C@@](C)(O)[C@H]23` [Compound 23], for which the “content of Compound 1 (converted from Compound 23)” value in data set [1] (1 h) was 5.36%; in data set [1] (2 h), 11.05%; in data set [1] (4 h), 19.64%; in data set [1] (8 h), 39.29%; in data set [1] (12 h), 55.36%. The “activities of the mice after each administration” value in data set [2] (500 and 1000 mg/kg) was “relatively reduced”. Besides, the “time to return to normal after administration” value in data set [2] (500 and 1000 mg/kg) lay within 1 to 2 h. Further, in data set [2] (500 and 1000 mg/kg, 30 days), the “mortality” value is reported as “none of the mice die”. In addition, the “effect on body weights” value in data set [2] (500 and 1000 mg/kg, female and male mice) is reported as “no obvious effect on the body weights”. Besides, the body weight in data set [2] (female, 500 mg/kg i.g. daily, Day 1) was found to be 100.00 ± 0.00; in data set [2] (female, 500 mg/kg i.g. daily, Day 5), 100.41 ± 0.43; in data set [2] (female, 500 mg/kg i.g. daily, Day 10), 99.01 ± 1.34; in data set [2] (female, 500 mg/kg i.g. daily, Day 15), 100.03 ± 0.95; in data set [2] (female, 500 mg/kg i.g. daily, Day 20), 100.52 ± 0.74; in data set [2] (female, 500 mg/kg i.g. daily, Day 25), 99.81 ± 1.72. Moreover, the body weight is recorded as 99.79 ± 2.55 in data set [2] (female, 500 mg/kg i.g. daily, Day 30); 100.00 ± 0.00 in data set [2] (female, 1000 mg/kg i.g. daily, Day 1); 101.96 ± 0.55 in data set [2] (female, 1000 mg/kg i.g. daily, Day 5); 101.80 ± 2.02 in data set [2] (female, 1000 mg/kg i.g. daily, Day 10); 99.77 ± 2.60 in data set [2] (female, 1000 mg/kg i.g. daily, Day 15); 101.04 ± 2.13 in data set [2] (female, 1000 mg/kg i.g. daily, Day 20). The body weight came to 99.06 ± 3.56 in data set [2] (female, 1000 mg/kg i.g. daily, Day 25); 100.67 ± 0.91 in data set [2] (female, 1000 mg/kg i.g. daily, Day 30); 100.00 ± 0.00 in data set [2] (male, 500 mg/kg i.g. daily, Day 1); 100.31 ± 0.89 in data set [2] (male, 500 mg/kg i.g. daily, Day 5); 101.51 ± 4.00 in data set [2] (male, 500 mg/kg i.g. daily, Day 10); 99.27 ± 2.11 in data set [2] (male, 500 mg/kg i.g. daily, Day 15). In addition, the body weight in data set [2] (male, 500 mg/kg i.g. daily, Day 20) is 101.29 ± 0.40; in data set [2] (male, 500 mg/kg i.g. daily, Day 25) it was 98.93 ± 0.60; in data set [2] (male, 500 mg/kg i.g. daily, Day 30) it was 100.10 ± 1.08; in data set [2] (male, 1000 mg/kg i.g. daily, Day 1) it was 100.00 ± 0.00; in data set [2] (male, 1000 mg/kg i.g. daily, Day 5) it was 101.48 ± 1.30; in data set [2] (male, 1000 mg/kg i.g. daily, Day 10), 101.22 ± 0.84. Also, the body weight in data set [2] (male, 1000 mg/kg i.g. daily, Day 15) turned out to be 100.47 ± 1.28; in data set [2] (male, 1000 mg/kg i.g. daily, Day 20), 100.15 ± 2.76; in data set [2] (male, 1000 mg/kg i.g. daily, Day 25), 98.35 ± 1.14; in data set [2] (male, 1000 mg/kg i.g. daily, Day 30) it was 100.71 ± 0.53.

For `C=C1C(=O)O[C@@H]2[C@H]3C(C)=CC[C@@]34O[C@@]4(C)CC[C@@H]12` [arglabin, reference compound], the EC50 in the data set with NLRP3 inflammasome was 10 nM.

What is called EC50 is the concentration that produces a half-maximal response.
